Measurements as given in patent US7265131B2, “Isoquinolinone derivatives and their use as therapeutic agents” (Exelixis, Inc., priority 2002, dated 2007).

Molecular target: T1, LXR α (Homo sapiens, UniProt Q13133)
T1 construct: Co-transfection expression plasmids, comprising full-length LXR α (pCMX-hLXR α); expressed in transfected cells; host or cells: CV-1 African Green Monkey kidney cells, transient transfection
T1 sequence (Q13133 1-447): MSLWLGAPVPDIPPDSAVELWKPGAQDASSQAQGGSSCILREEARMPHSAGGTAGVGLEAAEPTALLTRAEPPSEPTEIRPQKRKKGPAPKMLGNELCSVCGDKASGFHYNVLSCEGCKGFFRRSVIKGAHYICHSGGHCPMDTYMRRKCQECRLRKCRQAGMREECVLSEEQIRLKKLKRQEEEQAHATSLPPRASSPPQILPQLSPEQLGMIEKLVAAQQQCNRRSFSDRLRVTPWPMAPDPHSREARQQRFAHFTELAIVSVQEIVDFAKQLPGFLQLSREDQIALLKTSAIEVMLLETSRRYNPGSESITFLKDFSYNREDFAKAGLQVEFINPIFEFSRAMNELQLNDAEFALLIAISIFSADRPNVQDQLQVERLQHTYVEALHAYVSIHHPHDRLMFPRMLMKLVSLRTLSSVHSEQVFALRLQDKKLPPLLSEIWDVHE
T1 sequence (P19793 1-462 partner): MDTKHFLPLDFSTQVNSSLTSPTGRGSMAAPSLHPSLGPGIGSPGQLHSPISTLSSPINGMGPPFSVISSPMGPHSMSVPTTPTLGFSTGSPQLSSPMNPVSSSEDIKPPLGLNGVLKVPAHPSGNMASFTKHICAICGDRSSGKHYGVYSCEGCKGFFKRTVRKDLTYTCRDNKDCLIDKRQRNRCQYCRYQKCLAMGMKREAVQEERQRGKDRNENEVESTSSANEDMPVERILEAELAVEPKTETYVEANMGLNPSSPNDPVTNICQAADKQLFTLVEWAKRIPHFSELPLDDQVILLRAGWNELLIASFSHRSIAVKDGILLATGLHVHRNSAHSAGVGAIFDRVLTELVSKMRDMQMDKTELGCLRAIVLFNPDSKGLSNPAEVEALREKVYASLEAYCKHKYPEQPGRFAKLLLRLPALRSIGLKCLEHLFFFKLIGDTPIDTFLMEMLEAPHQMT
Assay: LXR/LXRE co-transfection assay (luciferase reporter, CV-1 cells)
Format: cell-based
Conditions: for Emax: CV-1, average percent efficacy, relative to control N-(3-((4-fluorophenyl)-(naphthalene-2-sulfonyl)amino)propyl)-2,2-dimethylpropionamide, read-out: % Eff(a); for EC50: average EC50 for agonism, cotransfection assay, CV-1 cells
Description: To measure the ability of compounds to activate or inhibit the transcriptional activity of LXR in a cell based assay, the co-transfection assay was used. It has been shown that LXR functions as a heterodimer with RXR. For the co-transfection assay, expression plasmids for LXR and RXR are introduced via transient transfection into mammalian cells along with a luciferase reporter plasmid that contains one copy of a DNA sequence that is bound by LXR-RXR heterodimers (LXRE; Willy, P. et al. 1995). Treatment of transfected cells with an LXR agonist increases the transcriptional activity of LXR, which is measured by an increase in luciferase activity.
1. CV-1 African Green Monkey Kidney Cells
2. Co-transfection expression plasmids, comprising full-length LXR α (pCMX-hLXR α), LXR β (pCMX-hLXR β), or RXR α (pCMX-RXR), reporter plasmid (LXREx1-Tk-Luciferase), and control (pCMX-Galactosidase expression vector) (Willey et al. Genes & Development 9 1033-1045 (1995)).
CV-1 cells were prepared 24 hours prior to the experiment by plating them into T-175 flasks or 500 cm^2 dishes in order to achieve 70-80% confluency on the day of the transfection. The number of cells to be transfected was determined by the number of plates to be screened. Each 384 well plate requires 1.92×10^6 cells or 5000 cells per well. DNA Transfection Reagent was prepared by mixing the required plasmid DNAs with a cationic lipid transfection reagent FuGENE6 (Roche) by following the instructions provided with the reagents. Optimal DNA amounts were determined empirically per cell line and size of vessel to be transfected. 10-12 mL of media was added to the DNA Transfection Reagent and this mixture was added to the cells after aspirating media from the T175 cm^2 flask. Cells were then incubated at least 5 hours at 37° C. to prepare screening cells.
Luciferase assay reagent was prepared by combining before use (per 10 mL):
Assay plates were prepared by dispensing 5 μL of compound per well of a 384 well plate to achieve final compound concentration of 10 μM and no more than 1% DMSO. Media was removed from the screening cells, the cells trypsinized, harvested cells by centrifugation, counted, and plated at a density of approximately 5000 cells per well in the 384 well assay plate prepared above in a volume of about 45 μL. Assay plates containing both compounds and screening cells (50 μL in total volume) were incubated for 20 hours at 37° C.
After incubation with compounds, media was removed from the cells and lysis buffer (30 μuL/well) added. After 30 minutes at ambient temperature, luciferase assay buffer (30 μL/well) was added and the assay plates read on a luminometer (PE Biosystems Northstar reader with on-board injectors, or equivalent). Plates were read immediately after addition of luciferase assay buffer.
The LXR/LXRE co-transfection assay can be used to establish the EC50/IC50 values for potency and percent activity or inhibition for efficacy. Efficacy defines the activity of a compound relative to a high control ((N-(3-((4-fluorophenyl)-(naphthalene-2-sulfonyl)amino)propyl)-2,2-dimethylpropionamide)) or a low control (DMSO/vehicle). The dose response curves are generated from an 8 point curve with concentrations differing by ½ LOG units. Each point represents the average of 4 wells of data from a 384 well plate.
The data from this assay is fitted to the following equation, from the EC50 value may be solved: Y=Bottom+(Top-Bottom)/(1+10^((logEC50-X*HillSlope))
The EC50/IC50 is therefore defined as the concentration at which an agonist or antagonist elicits a response that is half way between the Top (maximum) and Bottom (baseline) values. The EC50/IC50 values represented are the averages of at least 3 independent experiments. […]

Row | SMILES | Emax | EC50
1 | Nc1ccc(-c2coc(-c3cc4cccc(Cl)c4c(=O)n3Cc3ccc(F)cc3F)c2)cc1C(F)(F)F [3-[4-(4-amino-3-trifluoromethylphenyl)furan-2-yl]-8-chloro-2-(2,4-difluorobenzyl)-2H-isoquinolin-1-one] | > 90% | < 10 nM
2 | O=c1c2c(Cl)cccc2cc(-c2cc(-c3cc(C(F)(F)F)cc(C(F)(F)F)c3)co2)n1Cc1ccc(F)cc1F [3-[4-(3,5-bis-trifluoromethylphenyl)furan-2-yl]-8-chloro-2-(2,4-difluorobenzyl)-2H-isoquinolin-1-one] | 40 to 90% | 10 to 150 nM
3 | Cc1ccc(Cn2c(-c3ccc(Oc4ccccc4)cc3)cc3cccc(C)c3c2=O)cc1 [8-methyl-2-(4-methylbenzyl)-3-(4-phenoxyphenyl)-2H-isoquinolin-1-one] | 40 to 90% | 10 to 150 nM
4 | O=c1c2c(Cl)cccc2cc(-c2ccc(Oc3ccccc3)cc2)n1Cc1cccs1 [8-chloro-3-(4-phenoxyphenyl)-2-thiophen-2-ylmethyl-2H-isoquinolin-1-one] | 40 to 90% | 10 to 150 nM
5 | Cc1ccc(Cn2c(-c3ccc(Oc4ccccc4)cc3)cc3ccccc3c2=O)c(C)c1 [2-(2,4-dimethylbenzyl)-3-(4-phenoxyphenyl)-2H-isoquinolin-1-one] | > 90% | 10 to 150 nM
6 | Cc1cccc(-c2cc3ccccc3c(=O)n2Cc2ccccc2)c1 [2-benzyl-3-m-tolyl-2H-isoquinolin-1-one] | < 40% | > 500 nM
7 | O=c1c2c(Cl)cccc2cc(-c2ccc(Oc3cnccn3)cc2)n1Cc1ccc(F)cc1F [8-chloro-2-(2,4-difluorobenzyl)-3-[4-(pyrazin-2-yloxy)phenyl]-2H-isoquinolin-1-one] | > 90% | < 10 nM
8 | O=c1c2c(Cl)cccc2cc(-c2ccc(Oc3ccccc3)cc2)n1CC1CCCCC1 [8-chloro-2-cyclohexylmethyl-3-(4-phenoxyphenyl)-2H-isoquinolin-1-one] | 40 to 90% | 10 to 150 nM
9 | O=c1c2c(Cl)cccc2cc(-c2ccc(Oc3ccccc3)cc2)n1Cc1ccc(F)cc1F [8-chloro-2-(2,4-difluorobenzyl)-3-(4-phenoxyphenyl)-2H-isoquinolin-1-one] | > 90% | 10 to 150 nM
10 | CCOc1ccc(-c2csc(-c3cc4cccc(Cl)c4c(=O)n3Cc3ccc(F)cc3F)c2)cc1Cl [8-chloro-3-[4-(3-chloro-4-ethoxyphenyl)thiophen-2-yl]-2-(2,4-difluorobenzyl)-2H-isoquinolin-1-one] | 40 to 90% | 10 to 150 nM
11 | Cc1cccc(-c2cc3ccccc3c(=O)n2Cc2ccc(C)cc2C)c1 [2-(2,4-dimethylbenzyl)-3-m-tolyl-2H-isoquinolin-1-one] | 40 to 90% | 150 to 500 nM
12 | Cc1ccc(Cn2c(-c3ccsc3)cc3ccccc3c2=O)c(C)c1 [2-(2,4-dimethylbenzyl)-3-thiophen-3-yl-2H-isoquinolin-1-one] | 40 to 90% | > 500 nM
13 | Cc1ccc(Cn2c(C#CC(C)(C)O)cc3ccccc3c2=O)c(C)c1 [2-(2,4-dimethylbenzyl)-3-(3-hydroxy-3-methylbut-1-ynyl)-2H-isoquinolin-1-one] | 40 to 90% | > 500 nM
14 | CS(=O)(=O)c1ccc(-c2ccc(-c3cc4cccc(Cl)c4c(=O)n3Cc3ccc(F)cc3F)s2)cc1 [8-chloro-2-(2,4-difluorobenzyl)-3-[5-(4-methanesulfonylphenyl)thiophen-2-yl]-2H-isoquinolin-1-one] | 40 to 90% | 10 to 150 nM
